From patent US12286401B2, “Small molecules that sensitize HIV-1 infected cells to antibody dependent cellular cytotoxicity” (THE TRUSTEES OF THE UNIVERSITY OF PENNSYLVANIA, priority 2018, dated 2025) come the findings set out here.

Assay type in all cases: cell-based
Test [1] has as its system uninfected bystander CD4+ T cells. The test is described as follows: Uninfected bystander CD4+ T cell recognition and ADCC. Particulars: 50 μM. As to the method: FIG. 17A is a dot plot showing the ability of HIV+plasma to recognize uninfected bystander cells in the presence of 50 μM (+)-BNM-III-170 or (S)-MCG-IV-210 was evaluated by FACS. FIG. 17B is a dot showing the use of the uninfected eFluor 450+ cells as target cells for ADCC with autologous PBMC and 5 HIV+ plasma in the presence of 50 μM (+)-BNM-III-170 or (S)-MCG-IV-210. Statistical significance was evaluated using a paired t test (*, P<0.05; ****, P<0.0001; ns, not significant).
The capacity of (S)-MCG-IV-210 to protect uninfected bystander CD4+ T cells from ADCC responses was evaluated. Briefly, primary CD4+ T cells were infected with the NL4-3.ADA.GFP WT virus. The cell proliferation dye eFluor-450 was used to stain uninfected autologous CD4+ T cells, which were then added to the infected cells (eFluor-450-cells) and co-cultured for 72 h. The ability of HIV+ plasma to recognize uninfected bystander cells in the presence of 50 μM (+)-BNM-III-170 or (S)-MCG-IV-210 was evaluated by FACS (FIG. 17A). These uninfected eFluor 450+ cells were also used as target cells for ADCC with autologous PBMC and 5 HIV+ plasma in the presence of 50 μM (+)-BNM-III-170 or (S)-MCG-IV-210 (FIG. 17B).

Test [2] relates to primary CD4 T cells infected with HIV-1CH58TF. The test can be described thus: Cell surface staining with A32-AF647 (State 2A, cluster A exposure). The note with it: 50 μM compound. The protocol: FIGS. 14A-14D show the data for the cell surface staining with A32-AF647. Cells were then incubated with A32-AF647 together with 5 μg/ml 17b (FIG. 14A, FIG. 14B, 14C) or 1:1000 diluted HIV+ plasma from infected individuals (FIG. 14D) in the presence of DMSO, 50 μM (+)-BNM-III-170 or 50 μM (S)-MCG-IV-210 at 37° C. Mean fluorescence intensity (MFI) of A32-AF647 was measured by flow cytometry. FIG. 14E is a bar graph showing data for the VBE assay, comparing the binding capacity of different Abs, the relative ratio of the luciferase activity to the luciferase activity of 2G12. Data shown are the mean±SD of at least three independent experiments. Statistical significance was evaluated using Mann-Whitney unpaired t test (FIG. 14C) or Wilcoxon paired t test (FIG. 14D) (*, P<0.05; ns, not significant.).
To evaluate whether (S)-MCG-IV-210 was able to stabilize State 2A, primary CD4+ T cells were infected with the primary CH58 transmitted/founder (CH58 TF) virus and evaluated the exposure of the cluster A region with an Alexa-Fluor 647-conjugated A32 (A32-AF647) antibody in the presence or absence of CD4mc and the CoRBS 17b Ab, as reported. See, Richard, 2016, EbioMedicine doi:10.1016/j.ebiom.2016.09.004. […] Mean fluorescence intensity (MFI) of A32-AF647 was measured by flow cytometry. […]

For test [3], the system named is HIV-1CH58TF Env on virions. The test is described as follows: Virus-based ELISA (VBE) virus capture assay.
Test [4] relates to HIV-1CH58TF. The test can be described thus: Sensitization of viral particles to neutralization by 17b (TZM-bl). The note with it: sub-inhibitory concentrations (20 μM (S)-MCG-IV-210). The protocol:
(§1) To evaluate the direct virus-neutralizing ability of the analogs, I, HIV-1CH58TF was incubated with indicated amounts of different compounds or DMSO for 1 hour at 37° C., then added to TZM-bl cells. After incubation for 48 h at 37° C., luciferase activity was measured. Relative infectivity was calculated as the percentage of the value seen in the absence of compound. To measure the ability of (S)-MCG-IV-210 to sensitize viral particles to neutralization by otherwise non-neutralizing 17b (FIG. 15F), HIV-1CH58TF was incubated with the indicated amounts of 17b in the presence of 0.5 μM (+)-BNM-III-170, 20 μM (S)-MCG-IV-210 or DMSO for 1 hour at 37° C., then added to TZM-bl cells. After incubation for 48 h at 37° C., luciferase activity was measured.
Another well-documented antiviral property of CD4mc is their capacity to sensitize viral particles to neutralization by otherwise non-neutralizing antibodies. See, Madani, 2018, Nat. Commun. 9:2363; Madani, 2014, J. Virol. 88:6542-6555; and Madani, 2016, J. Virol., 90:5031-5046. (S)-MCG-IV-210 was tested to determine if this compound shared this property.

The test system of test [5] is HIV-1CH58TF. The test is described as follows: Virus neutralization in TZM-bl assay. Particulars: Human immunodeficiency virus 1; TZM-bl cells; read-out: IC50, inhibition of HIV-1CH58TF infection. The protocol: as §1
As a positive control, (+)-BNM-III-170 was used, which has been reported to inhibit HIV-1 infection at low micromolar concentrations. See, Melillo, ACS Med Chem Lett 7:330-334. […] While all tested MCG analogs also neutralized HIV-1CH58TF, they did so with only modest potency (FIG. 15E).

As usually defined, the IC50 is the concentration that inhibits the measured activity by half. With `NCCNC(=O)N1CCC[C@H](C(=O)Nc2ccc(Cl)c(F)c2)C1` [(S)-MCG-IV-210], in test [1] (added at the time of co-culture), the “recognition of bystander cells by HIV+ plasma” value is listed as “significantly decreased”. Also, in test [1] (autologous PBMC and 5 HIV+ plasma), the “ADCC-mediated killing of uninfected bystander CD4+ T cells” value was “protecting uninfected bystander CD4+ T cells from ADCC-mediating killing”. Also, the “recognition of infected cells by A32-AF647 with addition of 17b” value in test [2] (5 μg/ml 17b, 37° C.) is reported as “significantly enhanced”. In test [2] (1:1000 diluted HIV+ plasma), the “binding of infected cells by A32-AF647 in the presence of HIV+ plasma” value was “significantly enhanced binding”. Further, the “17b-mediated capture of virions” value in test [3] (50 μM compound) is listed as “dramatic increase”. Besides, in test [3] (50 μM compound in combination with 5 μg/ml 17b), the “virion capture by the A32 and C11 Cluster A antibodies” value is “permit virion capture”. The “neutralization by 17b of viral particles sensitized with compound” value with HIV-1CH58TF [4] is “potently neutralized”. In the test with HIV-1CH58TF [5], the IC50 was determined as 6.97 µM.
